Laboratory results as given in article PMC6099400, “A New Benzophenone C-Glucoside and Other Constituents of Pseuduvaria fragrans and Their α-Glucosidase Inhibitory Activity” (Molecules : A Journal of Synthetic Chemistry and Natural …, 2018).
Like-named read-outs stand apart in the source and are kept apart here.

How the values were obtained:
[1] = biological target: T1, Yeast α-glucosidase enzyme (Saccharomyces cerevisiae, UniProt P53341); assay: Kinetic study of α-glucosidase inhibition (Lineweaver-Burk and secondary plots); format: biochemical; conditions: for mode of enzyme inhibition: Lineweaver-Burk plots; for Slope: Lineweaver-Burk
T1 sequence (P53341 whole entry): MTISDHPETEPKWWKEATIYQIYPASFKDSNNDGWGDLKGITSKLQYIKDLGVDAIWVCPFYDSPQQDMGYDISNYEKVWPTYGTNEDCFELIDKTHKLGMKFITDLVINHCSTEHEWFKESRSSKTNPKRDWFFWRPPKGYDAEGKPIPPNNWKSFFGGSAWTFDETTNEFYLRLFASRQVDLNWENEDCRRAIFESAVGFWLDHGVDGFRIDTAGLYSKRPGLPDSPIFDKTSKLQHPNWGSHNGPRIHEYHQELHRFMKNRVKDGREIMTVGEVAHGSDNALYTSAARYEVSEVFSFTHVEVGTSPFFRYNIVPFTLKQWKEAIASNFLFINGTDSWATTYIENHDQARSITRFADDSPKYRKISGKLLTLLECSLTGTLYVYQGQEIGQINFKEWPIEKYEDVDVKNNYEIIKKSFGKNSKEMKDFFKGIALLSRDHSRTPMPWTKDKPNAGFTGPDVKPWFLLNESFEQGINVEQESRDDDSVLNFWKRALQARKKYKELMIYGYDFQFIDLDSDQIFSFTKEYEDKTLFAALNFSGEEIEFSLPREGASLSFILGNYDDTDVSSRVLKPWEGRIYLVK
Method: Lineweaver-Burk plots of the inverted values of velocity (1/V) versus the inverted values of substrate concentration (1/[S]) were prepared. […] To determine the Ki of each amide, we constructed a secondary plot by replotting the reciprocal of Km (1/Km) against inhibitor concentration.
Vacuum liquid chromatography (VLC) and column chromatography (CC) were performed on silica gel 60 (40–63 μm, Merck, Darmstadt, Germany), silica gel 60 (63–200 μm, Merck, Darmstadt, Germany) or Sephadex LH-20 (Pharmacia, Piscataway, NJ, USA) or Diaion HP20 (Mitsubishi Chemical, Tokyo, Japan). For preparative HPLC, a Shim-pack Prep-ODS (No.2025820) column (Shimadzu, Tokyo, Japan), with isocratic 50% methanol in water, SPD-10A UV-Vis detector (Shimadzu, Tokyo, Japan), and flow rate 1 mL/min, was used. NMR spectra were obtained with a Bruker Avance DPX-300 FT-NMR spectrometer (Brucker Corporation, Billerica, MA, USA). High-resolution electrospray ionization mass spectra (HR-ESI-MS) were recorded with a Bruker micro TOF mass spectrometer (Bruker Daltonics, Billerica, MA, USA). Optical rotations were obtained with a PerkinElmer 341 polarimeter (PerkinElmer, Boston, MA, USA). UV spectra were measured on an Agilent Technologies Cary 60 UV-Vis (Agilent, Santa Clara, CA, USA), and IR spectra (Agilent, Santa Clara, CA, USA) were recorded on a Perkin-Elmer FT-IR 1760x spectrophotometer (PerkinElmer, Boston, MA, USA). […] Absorbance in 96-well plates was measured using a microplate reader (Wallac1420 Multilevel counter, Victor3, PerkinElmer).
The kinetic assay of enzyme inhibition was done in a 96-well plate. The enzyme kinetics parameters (Km and Vmax) were obtained by analyzing the double reciprocal Lineweaver-Burk plot (1/V vs. 1/[S]). Each experiment was carried out by varying the concentration of pNPG (2.0, 1.0, 0.5, 0.25, 0.125 mM) in the absence and presence of different concentrations of the test sample. The reaction was monitored at 405 nm by a microplate reader every 5 min for a total time of 30 min. Each experiment was performed in triplicate. […] The inhibition constant (Ki) of each compound was then calculated from the intersection on the abscissa.

[2] = biological target: T1, Yeast α-glucosidase enzyme; conditions: earlier report; cited from earlier work

| Compound | mode of enzyme inhibition [1] | Slope ([1]; inhibitor dose 0.5 µM) | Slope ([1]; inhibitor dose 1.0 µM) | Slope ([1]; inhibitor dose 2.0 µM) | Vmax ([1]; inhibitor dose 0.5 µM) | Vmax ([1]; inhibitor dose 1.0 µM) | Vmax ([1]; inhibitor dose 2.0 µM) | mode of enzyme inhibition [2] | Slope ([1]; inhibitor dose 4.0 µM) | Slope ([1]; inhibitor dose 8.0 µM) | Vmax ([1]; inhibitor dose 4.0 µM) | Vmax ([1]; inhibitor dose 8.0 µM) |
| --- | --- | --- | --- | --- | --- | --- | --- | --- | --- | --- | --- | --- |
| O=C(/C=C/c1ccc(O)cc1)NCCc1ccc(O)cc1 [Compound 6, N-trans-coumaroyltyramine] | uncompetitive inhibitors | 34.55 | 34.67 | 35.56 | 0.0077 ΔA405/min | 0.0030 ΔA405/min | 0.0018 ΔA405/min | uncompetitive α-glucosidase inhibition | – | – | – | – |
| COc1cc(/C=C/C(=O)NCCc2ccc(O)cc2)ccc1O [Compound 7, N-trans-feruloyltyramine] | uncompetitive inhibitors | – | – | 36.62 | – | – | 0.0072 ΔA405/min | – | 37.56 | 36.51 | 0.0044 ΔA405/min | 0.0027 ΔA405/min |
| C[C@H]1O[C@H](O[C@H]2[C@H](O)[C@@H](O)[C@@H](O[C@H]3[C@H](O)[C@@H](O)C(O)O[C@@H]3CO)O[C@@H]2CO)[C@H](O)[C@@H](O)[C@@H]1N[C@H]1C=C(CO)[C@@H](O)[C@H](O)[C@H]1O (stereo partly shown) [acarbose, reference compound] | competitive inhibition | – | – | – | – | – | – | – | – | – | – | – |
